Experiments:
[1] = tested on: Jak1; settings: Kumamoto T. et al., Cancer Lett. 2009; cited from earlier work
[2] = tested on: EGF receptor (EGFR); settings: Kumamoto T. et al., Cancer Lett. 2009; cited from earlier work
[3] = tested on: CD4-positive T cells derived from the mutant mouse; test: Cytokine-dependent cell proliferation activity (WST-8 assay); type: cell-based; settings: cytokine/PMA-stimulated, 48 hours culture, Jak inhibitor I 3-100 nM, Jak3 inhibitor I 125-500 μM
Description: Cytokine-dependent cell proliferation activity was measured as described below. Single cells of the thymus in suspension were cultured at a density of 5×10^5 cells/well, and stimulated with PMA (10 ng/ml) [IL-2 (25 ng/ml), IL-4 (25 ng/ml), IL-6 (100 ng/ml), IL-7 (25 ng/ml), IL-12 (1-100 ng/ml) or IFN-γ (100 ng/ml) (Peprotech and R&D) was added]. Used in some experiments was the pan-Jak inhibitor Jak inhibitor I (3-100 nM, pyridone 6; Calbiochem) or Jak3 inhibitor I (125-500 μM, WHI-P131; Calbiochem). The cells were cultured for 48 hours, and their proliferation was measured by an assay using WST-8 (Nacalai Tesque) and soluble tetrazolium/formazan.

[4] = tested on: pY-Jak1 and Ki67 in the ear skins of the mutant mice; test: Histoimmunological staining of differentiation marker molecules in ear skin after Jak inhibitor; type: in vivo, mouse; settings: mutant mice treated with Jak inhibitor for 2 weeks from Week 4 of age
Description: (§1) Jak inhibitor I (150 μM, pyridone 6; Calbiochem) in suspension in acetone/olive oil (4:1), 10 μl, was topically applied to the ventral and dorsal parts of the ear skin of each mutant mouse three times a week, starting at 4 weeks after birth.
For analysis by immunofluorescence, frozen ear tissue specimens were fixed and stained using an antibody against pY-Jak1 (Cell Signaling), an antibody against Ki67 (Abcam), and an antibody against K6, K14 or K10 (Covance). Next, samples were incubated with an FITC- or Cy3-conjugated goat anti-rabbit IgG secondary antibody (Zymed). The slides were further counter-stained with hematoxylin or DAPI (Vector Laboratories).
Since some differentiation marker molecules were abnormally expressed in the epidermal layer, how the expression of those differentiation marker molecules changed with inhibition of Jak1 activity with a Jak inhibitor in mutant mice was examined by histoimmunological staining (FIG. 5c). By inhibiting Jak1 activity, the expression of pY-Jak1 and the expression of Ki67 in the ear skins of the mutant mice could be reduced. In contrast, in the mice receiving the solvent alone, Jak1 and Ki67 were activated in excess. […] In the ear skins of mice treated with acetone-olive oil alone, all markers were expressed at higher levels than in the skins of non-treated mice.

[5] = tested on: ear skins of mutant mice; test: Topical application of Jak inhibitor to ear skin of mutant mice, development of dermatitis; type: in vivo, mouse
Description: (§2) A mouse model of atopic dermatitis was generated according to a detailed protocol reported [Masuya et al., Hum Mol Genet. 16, 2366-2375 (2007); http://www.brc.riken.jp/lab/gsc/mouse/]. C57BL/6J mice and C3H/HeJ mice were purchased from CLEA Japan. C57BL/6-kit^W-sh/W-sh mice were obtained from the RIKEN BioResource Center. C57BL/6-RAG1^−/− mice were allowed to propagate spontaneously. Severity scores were determined using an improved version of a reported scale [Matsuda et al., Int Immunol. 9, 461-466 (1997)]. The mice were reared in an SPF (specific pathogen-free) environment and subjected to experiments in compliance with the guidelines with the approval of RIKEN's Animal Experiment Committee.
as §1
The above-described Example has shown that dermatitis in the mutant mice is caused by excess activation of Jak1 and resulting defect of the skin barrier. To verify this hypothesis, a Jak inhibitor was coated on the ear skins of mutant mice at 4 weeks after birth and their litter mates. To allow the inhibitor to deeply penetrate the epidermal layer, a combination of acetone and olive oil was used as the solvent for the inhibitor. In fact, this solvent itself was harmful to the formation of the epidermal barrier; the development of dermatitis in the mutant mice was promoted by administering this solvent.

[6] = tested on: ear skins of mutant mice; test: Petrolatum coating of ear skin of mutant mice, development of dermatitis; type: in vivo, mouse; settings: Jak inhibitor added to petrolatum
Description: as §2
To determine whether the destruction of the skin permeability barrier causes the development of dermatitis in the mutant mice, their ear skins were coated with petrolatum alone three times a week for 4 to 16 weeks.

Compound	phosphorylation of Jak1 [1]	self-phosphorylation of EGF receptor (EGFR) [2]	inhibition of accentuated (excess) proliferation of lymphocytes [3]	inhibition of accentuated (excess) proliferation of lymphocytes ([3]; listed as Jak inhibitor I)	expression of Ki67 in ear skin [4]	expression of pY-Jak1 in ear skin [4]	delay of development of dermatitis compared with solvent alone ([5]; 150 μM in acetone/olive oil, 10 μl topically on ear skin three times a week from 4 weeks after birth)	clinical symptoms compared with solvent alone ([5]; 150 μM in acetone/olive oil, topical on ear skin three times a week from 4 weeks after birth)	development of dermatitis (in words) ([5]; Jak inhibitor applied to the skin, FIG. 5)	progression of the illness after development of dermatitis ([5]; coating with the Jak inhibitor on ear skin)	additive effect on suppression of development of the illness [6]	inhibition of accentuated (excess) proliferation of lymphocytes ([3]; listed as Jak 3 inhibitor I)
O=c1c(O)c(-c2cc(O)c(O)c(O)c2)oc2cc(O)cc(O)c12 [myricetin, 3,3′,4′,5,5′,7-hexahydroxyflavone]	inhibit	increase	–	–	–	–	–	–	–	–	–	–
CC(C)(C)c1nc2c3cc[nH]c(=O)c3c3cc(F)ccc3c2[nH]1 [pyridone 6]	–	–	dose-dependently inhibited	inhibited dose-dependently	reduced	reduced	1 week	less severe clinical symptoms	suppressed	suppressed the progression of the illness	no additive effect	–
COc1cc2ncnc(Nc3ccc(O)cc3)c2cc1OC [WHI-P131]	–	–	not	–	–	–	–	–	–	–	–	lack of proliferation inhibition

Source: US20120034226A1, “DIAGNOSTIC METHOD OF SKIN INFLAMMATORY DISEASE” (RIKEN, priority 2009, published 2012)
